Among the data in PMC9578396, “Intrinsic Antibacterial Activity of Xeruborbactam In Vitro: Assessing Spectrum and Mode of Action” (Antimicrobial Agents and Chemotherapy, 2022) are IC50 values, retold here.

Common to all, as to test: Gel-based Bocillin FL competition PBP binding assay
The target in test [1] is PBP2 (Klebsiella pneumoniae, UniProt A6T696). The protocol: (§1) Ten milliliters of overnight bacterial culture was inoculated in 1 L of LB medium and grown to an OD600 of 0.7 to 0.9. The cell pellet was washed once with 50 mL of solution containing 100 mM Na-phosphate at pH 7.0 and 100 mM NaCl and resuspended in 10 mL of the same buffer with one tablet of EDTA-free mini-protease inhibitor and 10 mg of lysozyme. Cell suspensions were incubated for 45 min at 37°C, and then 200 μL of DNase I was added along with MgSO4 (to a final concentration of 10 mM), followed by three cycles of freeze-thawing (10 min and 20 min, respectively). Four cycles of sonication at maximum power were performed next, each cycle lasting for 30 s with 1 min on ice between cycles. The cell suspension was centrifuged at 12,000 × g for 10 min at 4°C. The supernatant was collected and centrifuged at 100,000 × g for 45 min at 4°C. The pellet was washed three times with 10 mL of 100 mM Na-phosphate, pH 7.0, by resuspension and subsequent centrifugation at 100,000 × g for 10 min at 4°C. The pellet was finally resuspended in 1.5 mL of 100 mM Na-phosphate, pH 7.0, and passed several times through a Dounce homogenizer (tight pestle). Membrane preparations were aliquoted and kept at −80°C.
(§2) Five microliters of total bacterial membrane preparation was mixed with 5 μL of a test compound at a desired concentration in 100 mM Na-phosphate buffer, pH 7.0. Incubation of bacterial membrane preparations with control beta-lactams was performed for 10 min at 30°C; xeruborbactam was incubated with membrane preparations for 1 h at 30°C. Five microliters of 150 μM Bocillin FL fluorescent probe (Thermo Fisher Scientific) was added, and the reaction mixture was incubated for an additional 10 min at 30°C in the case of beta-lactams or for 20 min on ice (0°C) in the case of xeruborbactam. We believe that the 0°C temperature is required to prevent displacement of xeruborbactam from its complex by the Bocillin probe. At the end of the incubation step, 15 μL of 2× SDS sample loading buffer was added, and the reaction mixture was incubated for 5 min at 95°C. Twenty-five microliters of the reaction mixture was then loaded on an 8% SDS Tris-glycine gel (Thermo Fisher Scientific). At the end of the run, the gel was briefly rinsed with water and fixed in 10% acetic acid, 40% methanol for 20 min. After an additional wash in water for 30 min, the gel was scanned on a Typhoon Trio+ Imager using a blue laser filter (excitation, 488 nm, and emission, 520 nm). Densitometry of the gel images was performed using ImageQuant software (Molecular Dynamics). IC50 values were calculated with Prism software (GraphPad).

For test [2], the target named is T1, PBP1a (Escherichia coli, UniProt P02918).
T1 construct: endogenous in cells; host or cells: Escherichia coli ECM5497 (MG1655), total membrane preparation
As for the experimental part: as §1, §2

Test [3] addresses PBP1a (Acinetobacter baumannii, UniProt A0ABX6CK30). As for the experimental part:
as §1, §2

The next test deals with PBP3 (Klebsiella pneumoniae, UniProt A0A0H3GN85). As for the experimental part:
as §1, §2

Test [4] has as its target T2, PBP2 (Acinetobacter baumannii, UniProt D0C8Z9).
T2 construct: endogenous in cells
T2 sequence (D0C8Z9 1-672): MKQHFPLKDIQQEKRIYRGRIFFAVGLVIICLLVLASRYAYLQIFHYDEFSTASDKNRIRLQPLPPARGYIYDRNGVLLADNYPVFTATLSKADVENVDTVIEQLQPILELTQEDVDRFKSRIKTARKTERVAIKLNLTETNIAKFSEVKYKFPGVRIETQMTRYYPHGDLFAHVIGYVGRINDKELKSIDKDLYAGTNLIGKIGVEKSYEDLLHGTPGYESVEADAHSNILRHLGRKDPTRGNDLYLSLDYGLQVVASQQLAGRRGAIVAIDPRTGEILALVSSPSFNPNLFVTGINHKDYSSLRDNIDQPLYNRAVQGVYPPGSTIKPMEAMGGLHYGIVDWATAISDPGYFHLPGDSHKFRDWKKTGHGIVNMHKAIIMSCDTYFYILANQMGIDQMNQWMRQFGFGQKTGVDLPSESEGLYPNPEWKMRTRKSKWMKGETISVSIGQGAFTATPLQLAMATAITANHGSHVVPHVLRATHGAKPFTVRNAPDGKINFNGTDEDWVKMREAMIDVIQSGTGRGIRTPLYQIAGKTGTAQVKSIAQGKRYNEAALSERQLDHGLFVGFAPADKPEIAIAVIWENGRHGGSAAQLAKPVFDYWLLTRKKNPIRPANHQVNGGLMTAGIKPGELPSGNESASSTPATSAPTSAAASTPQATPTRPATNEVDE
As to conditions: A. baumannii ACM1320 membranes; Bocillin FL step 0°C for xeruborbactam, 30°C for beta-lactams; read-out: Relative binding IC50, PBP2. As for the experimental part:
as §1
as §2, with “We believe that the 0°C temperature is required to prevent displacement of xeruborbactam from its complex by the Bocillin probe.” left out

The target of the next test is PBP1b (Pseudomonas aeruginosa, UniProt G3XD31). The protocol:
as §1
as §2, with “We believe that the 0°C temperature is required to prevent displacement of xeruborbactam from its complex by the Bocillin probe.” left out

Where two headings read alike, the source gives them in different places.

Sequence of PBP1b (G3XD31 entry or part of it): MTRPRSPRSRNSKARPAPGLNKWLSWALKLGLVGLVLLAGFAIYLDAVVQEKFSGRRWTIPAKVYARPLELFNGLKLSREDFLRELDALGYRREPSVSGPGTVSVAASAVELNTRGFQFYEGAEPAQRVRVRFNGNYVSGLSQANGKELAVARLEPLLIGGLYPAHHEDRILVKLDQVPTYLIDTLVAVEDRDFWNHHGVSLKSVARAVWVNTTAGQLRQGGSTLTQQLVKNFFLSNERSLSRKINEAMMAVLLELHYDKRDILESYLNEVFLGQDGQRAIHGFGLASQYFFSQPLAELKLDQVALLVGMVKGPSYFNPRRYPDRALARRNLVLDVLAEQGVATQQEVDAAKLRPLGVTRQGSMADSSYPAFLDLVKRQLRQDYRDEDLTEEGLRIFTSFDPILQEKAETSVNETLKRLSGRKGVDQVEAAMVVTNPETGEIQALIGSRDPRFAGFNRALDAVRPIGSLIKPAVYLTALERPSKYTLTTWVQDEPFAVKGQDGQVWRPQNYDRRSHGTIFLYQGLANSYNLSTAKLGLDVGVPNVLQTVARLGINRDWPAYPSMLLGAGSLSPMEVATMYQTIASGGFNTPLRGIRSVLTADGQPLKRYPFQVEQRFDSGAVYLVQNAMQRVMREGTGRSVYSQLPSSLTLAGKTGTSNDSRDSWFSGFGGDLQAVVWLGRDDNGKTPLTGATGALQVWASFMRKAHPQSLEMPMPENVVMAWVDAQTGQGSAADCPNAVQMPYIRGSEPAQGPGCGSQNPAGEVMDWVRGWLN
Sequence of PBP2 (Klebsiella pneumoniae, UniProt A6T696) (A6T696 entry or part of it): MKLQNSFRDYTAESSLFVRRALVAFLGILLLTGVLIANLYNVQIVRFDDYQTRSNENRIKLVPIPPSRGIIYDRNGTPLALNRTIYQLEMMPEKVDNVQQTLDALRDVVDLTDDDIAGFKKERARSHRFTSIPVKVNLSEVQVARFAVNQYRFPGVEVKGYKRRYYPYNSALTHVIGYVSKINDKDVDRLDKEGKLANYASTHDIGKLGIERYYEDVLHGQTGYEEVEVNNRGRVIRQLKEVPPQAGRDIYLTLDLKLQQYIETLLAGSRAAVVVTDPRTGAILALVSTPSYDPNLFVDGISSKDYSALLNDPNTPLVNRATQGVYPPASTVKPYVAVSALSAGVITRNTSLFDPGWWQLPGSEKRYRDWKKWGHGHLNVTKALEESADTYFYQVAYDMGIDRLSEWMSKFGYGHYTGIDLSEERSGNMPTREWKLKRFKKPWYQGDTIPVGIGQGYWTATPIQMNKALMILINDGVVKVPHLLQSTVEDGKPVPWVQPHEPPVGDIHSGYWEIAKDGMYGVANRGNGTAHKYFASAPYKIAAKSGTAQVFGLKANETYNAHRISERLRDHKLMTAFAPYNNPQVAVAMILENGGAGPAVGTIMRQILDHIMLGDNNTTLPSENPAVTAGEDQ
T1 sequence (P02918 whole entry): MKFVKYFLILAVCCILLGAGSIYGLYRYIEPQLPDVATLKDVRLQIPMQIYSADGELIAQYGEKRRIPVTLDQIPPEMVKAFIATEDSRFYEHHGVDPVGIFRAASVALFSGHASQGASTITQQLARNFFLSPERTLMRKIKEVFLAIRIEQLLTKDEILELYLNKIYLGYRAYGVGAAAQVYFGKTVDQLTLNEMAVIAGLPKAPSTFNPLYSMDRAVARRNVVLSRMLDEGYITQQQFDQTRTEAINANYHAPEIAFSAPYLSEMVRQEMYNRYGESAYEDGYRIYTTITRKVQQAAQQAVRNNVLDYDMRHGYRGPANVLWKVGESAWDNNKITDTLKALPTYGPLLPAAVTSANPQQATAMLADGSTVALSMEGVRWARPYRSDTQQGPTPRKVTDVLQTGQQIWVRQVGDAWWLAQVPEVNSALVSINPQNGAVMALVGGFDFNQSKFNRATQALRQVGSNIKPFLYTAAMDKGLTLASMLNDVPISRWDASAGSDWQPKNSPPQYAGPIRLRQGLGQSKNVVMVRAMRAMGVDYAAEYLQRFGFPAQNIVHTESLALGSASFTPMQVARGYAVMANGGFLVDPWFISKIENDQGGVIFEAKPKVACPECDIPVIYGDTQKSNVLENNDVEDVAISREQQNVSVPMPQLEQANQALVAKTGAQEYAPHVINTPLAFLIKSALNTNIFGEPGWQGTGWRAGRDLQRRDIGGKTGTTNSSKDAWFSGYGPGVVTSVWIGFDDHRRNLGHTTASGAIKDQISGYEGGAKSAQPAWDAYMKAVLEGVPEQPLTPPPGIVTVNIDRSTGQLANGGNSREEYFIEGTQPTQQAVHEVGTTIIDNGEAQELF
Sequence of PBP3 (A0A0H3GN85 entry or part of it): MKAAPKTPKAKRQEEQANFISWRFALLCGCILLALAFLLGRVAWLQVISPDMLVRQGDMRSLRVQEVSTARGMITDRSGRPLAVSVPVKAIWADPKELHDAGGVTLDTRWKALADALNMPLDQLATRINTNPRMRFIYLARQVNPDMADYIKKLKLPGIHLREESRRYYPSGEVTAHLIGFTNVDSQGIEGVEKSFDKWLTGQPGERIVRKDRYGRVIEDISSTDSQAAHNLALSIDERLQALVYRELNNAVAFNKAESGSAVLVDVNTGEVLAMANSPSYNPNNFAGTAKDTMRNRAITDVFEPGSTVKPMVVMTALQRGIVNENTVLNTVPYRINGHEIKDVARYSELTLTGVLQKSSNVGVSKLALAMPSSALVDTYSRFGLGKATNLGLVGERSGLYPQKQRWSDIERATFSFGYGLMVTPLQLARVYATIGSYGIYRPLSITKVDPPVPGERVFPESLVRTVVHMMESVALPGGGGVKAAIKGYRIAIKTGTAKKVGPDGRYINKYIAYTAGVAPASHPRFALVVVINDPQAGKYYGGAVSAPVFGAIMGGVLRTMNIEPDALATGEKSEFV
Sequence of PBP1a (Acinetobacter baumannii, UniProt A0ABX6CK30) (A0ABX6CK30 entry or part of it): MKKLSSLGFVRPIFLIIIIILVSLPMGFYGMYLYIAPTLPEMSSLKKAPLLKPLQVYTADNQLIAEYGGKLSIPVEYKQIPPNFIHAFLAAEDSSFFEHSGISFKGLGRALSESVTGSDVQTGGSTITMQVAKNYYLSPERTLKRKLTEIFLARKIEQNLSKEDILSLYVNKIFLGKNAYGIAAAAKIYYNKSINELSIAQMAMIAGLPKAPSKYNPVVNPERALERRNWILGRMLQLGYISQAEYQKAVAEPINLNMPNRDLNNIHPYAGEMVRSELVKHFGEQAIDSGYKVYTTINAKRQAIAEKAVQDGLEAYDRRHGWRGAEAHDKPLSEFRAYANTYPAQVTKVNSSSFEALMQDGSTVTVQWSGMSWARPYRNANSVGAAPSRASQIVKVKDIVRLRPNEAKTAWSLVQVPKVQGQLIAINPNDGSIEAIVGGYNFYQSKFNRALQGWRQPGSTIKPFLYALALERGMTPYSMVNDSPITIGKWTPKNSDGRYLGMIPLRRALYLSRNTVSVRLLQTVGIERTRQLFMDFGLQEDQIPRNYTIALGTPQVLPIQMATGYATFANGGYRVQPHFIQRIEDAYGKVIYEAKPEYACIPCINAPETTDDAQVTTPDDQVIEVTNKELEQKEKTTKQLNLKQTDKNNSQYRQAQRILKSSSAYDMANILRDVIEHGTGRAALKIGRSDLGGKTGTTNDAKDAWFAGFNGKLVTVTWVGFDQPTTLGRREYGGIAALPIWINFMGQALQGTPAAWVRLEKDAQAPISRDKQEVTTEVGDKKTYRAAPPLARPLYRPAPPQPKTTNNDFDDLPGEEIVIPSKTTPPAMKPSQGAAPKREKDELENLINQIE

Take `C[C@@H](O)[C@H]1C(=O)N2C(C(=O)O)=C(S[C@@H]3CN[C@H](C(=O)N(C)C)C3)[C@H](C)[C@H]12` [Meropenem]: the IC50 (commonly the concentration at which inhibition is half-maximal) on PBP2 [1] came to 3 nM; on PBP1a [2], 5400 nM; on PBP1a [3] (read-out: Relative binding IC50, PBP1a; A. baumannii ACM1320 membranes; Bocillin FL step 0°C for xeruborbactam, 30°C for beta-lactams), 70 nM; at PBP3 (read-out: Relative binding IC50, PBP3; K. pneumoniae KPM1001 membranes; Bocillin FL step 0°C for xeruborbactam, 30°C for beta-lactams), 240 nM; on PBP2 [4], 11 nM; on PBP1b (read-out: Relative binding IC50, PBP1b; P. aeruginosa PAM3034 membranes; Bocillin FL step 0°C for xeruborbactam, 30°C for beta-lactams), 230 nM.
As for `O=C(O)c1c(F)ccc2c1OB(O)[C@@H]1C[C@H]21` [Xeruborbactam], the IC50 was determined as 51000 ± 15000 nM on PBP2 [1] (K. pneumoniae KPM1001 membranes, Bocillin FL step 0°C for xeruborbactam, 30°C for beta-lactams, read-out: Relative binding IC50, PBP2); 47000 ± 13000 nM at PBP1a [2] (E. coli ECM5497 membranes, Bocillin FL step 0°C for xeruborbactam, 30°C for beta-lactams, read-out: Relative binding IC50, PBP1a); 1400 ± 500 nM on PBP1a [3] (A. baumannii ACM1320 membranes; Bocillin FL step 0°C for xeruborbactam, 30°C for beta-lactams; read-out: Relative binding IC50, PBP1a); 55000 ± 8000 nM at PBP3 (K. pneumoniae KPM1001 membranes; Bocillin FL step 0°C for xeruborbactam, 30°C for beta-lactams; read-out: Relative binding IC50, PBP3); 23000 ± 2000 nM on PBP2 [4]; 7100 ± 800 nM at PBP1b (P. aeruginosa PAM3034 membranes; Bocillin FL step 0°C for xeruborbactam, 30°C for beta-lactams; listed as xeruborbactam; read-out: Relative binding IC50, PBP1b). For the same compound, on PBP1b (P. aeruginosa PAM3034 membranes; Bocillin FL step 0°C for xeruborbactam, 30°C for beta-lactams; read-out: Relative binding IC50, PBP1b), the IC50 was found to be 1900 ± 200 nM.
